Data published in patent publication US20150320880A1, “ANTIBODY DRUG CONJUGATES” (NOVARTIS AG, priority 2013, published 2015).

Experiments:
GIST882 cell line = experiment: Combination dose-matrix cell viability (CellTiter Glo, Loewe model); type: cell-based; settings: NEG085-MCC-DM1 in combination with the compound, 120 h
Procedure: (§1) Relative inhibition of cell viability was calculated for every dose combination. […] Excess inhibition compared to additivity can be plotted as a full dose-matrix chart to visualize the drug concentrations where synergies occur. Synergistic combinations produced regions of excess inhibition within the dose-matrix. […] “Additivity” was found when the combination generated the same inhibition of cell viability response when compared to the response with the single agent by itself “Synergy” was indicated when the inhibition of cell viability was greater than the response of the single agent compared with itself. Alternatively, “Additivity” was indicated with a Loewe score of less than 5, and “Synergy” was indicated by a Loewe score of greater than 5.
(§2) Cell viability was determined by measuring cellular ATP content using the CellTiter Glo luminescence assay (Promega, Madison Wis.). One day before drug addition, 250-500 GIST cells from 2 different cell lines were plated into 384-well plates (Greiner, Monroe, N.C.) in 20 μl growth media.

GIST430 cell line = experiment: as above; type: cell-based; settings: NEG085-MCC-DM1 in combination with the compound, 120 h
Procedure: as §1, §2

Row | Structure (SMILES) | GIST882 cell line (GIST882 cell line) | GIST430 cell line (GIST430 cell line)
1 | CO[C@H]1C[C@@H]2CC[C@@H](C)[C@@](O)(O2)C(=O)C(=O)N2CCCC[C@H]2C(=O)O[C@H]([C@H](C)C[C@@H]2CC[C@@H](OCCO)[C@H](OC)C2)CC(=O)[C@H](C)/C=C(\C)[C@@H](O)[C@@H](OC)C(=O)[C@H](C)C[C@H](C)/C=C/C=C/C=C/1C [Afinitor ®, Everolimus] | Synergy (“Synergy” was indicated by a Loewe score of greater than 5) | Synergy (“Synergy” was indicated by a Loewe score of greater than 5)
2 | Cn1c(=O)n(-c2ccc(C(C)(C)C#N)cc2)c2c3cc(-c4cnc5ccccc5c4)ccc3ncc21 [NVP-BEZ235, 2-Methyl-2-[4-[3-methyl-2-oxo-8-(quinolin-3-yl)-2,3-dihydroimidazo[4,5-c]quinolin-1-yl]phenyl]propionitrile] | Synergy (“Synergy” was indicated by a Loewe score of greater than 5) | Additivity (“Additivity” was indicated with a Loewe score of less than 5)
3 | Nc1cc(C(F)(F)F)c(-c2cc(N3CCOCC3)nc(N3CCOCC3)n2)cn1 [NVP-BKM120, 4-(trifluoromethyl)-5-(2,6-dimorpholinopyrimidin-4-yl)pyridin-2-amine] | Synergy (“Synergy” was indicated by a Loewe score of greater than 5) | Additivity (“Additivity” was indicated with a Loewe score of less than 5)
4 | C[C@@H]1CN(c2ccc(Nc3ncc4ccn(-c5cc(F)c(CN6CCOCC6)c(F)c5)c4n3)cn2)C[C@H](C)N1 [NVP-BVB808] | Additivity (“Additivity” was indicated with a Loewe score of less than 5) | Additivity (“Additivity” was indicated with a Loewe score of less than 5)
5 | Cc1nc(NC(=O)N2CCC[C@H]2C(N)=O)sc1-c1ccnc(C(C)(C)C(F)(F)F)c1 [NVP-BYL719] | Synergy (“Synergy” was indicated by a Loewe score of greater than 5) | Synergy (“Synergy” was indicated by a Loewe score of greater than 5)
6 | COc1ccc(-c2ccc3c(N4CCOC[C@@H]4C)nc(N4CCOC[C@@H]4C)nc3n2)cc1CO [NVP-CCG168] | Additivity (“Additivity” was indicated with a Loewe score of less than 5) | Additivity (“Additivity” was indicated with a Loewe score of less than 5)
7 | COc1cccc(-c2cc(F)ccc2[C@H]2Cc3nc(N)nc(C)c3C(=O)N2)n1 [NVP-HSP990] | Additivity (“Additivity” was indicated with a Loewe score of less than 5) | Additivity (“Additivity” was indicated with a Loewe score of less than 5)
8 | CN[C@@H](C)C(=O)N[C@H](C(=O)N1CCC[C@H]1c1nc(C(=O)c2ccc(F)cc2)cs1)C1CCCCC1 [NVP-LCL161] | Synergy (“Synergy” was indicated by a Loewe score of greater than 5) | Synergy (“Synergy” was indicated by a Loewe score of greater than 5)
9 | CCN(CC)CCNC(=O)c1c(C)[nH]c(/C=C2\C(=O)Nc3ccc(F)cc32)c1C [Sutent ®, Sunitinib] | Additivity (“Additivity” was indicated with a Loewe score of less than 5) | Additivity (“Additivity” was indicated with a Loewe score of less than 5)
